Entries after “also recorded” stand apart in the source; their conditions may differ.
Assays:
Assay type in all cases: cell-based
[1] = tested on: 3T3 L1 adipocytes; experiment: Glucose uptake assay ([14C]2-deoxyglucose) in 3T3 L1 adipocytes; settings: pre-incubation with 50 μM C2-ceramide for 60 min, 100 nM insulin, n=3
Description: 3T3-L1 preadipocytes were grown to confluency in 10% calf serum/DMEM and stimulated with induction media (DMEM containing 10% fetal bovine serum, 1 μg/ml insulin, 1 μM dexamethasone, and 0.5 mM 3-isobutyl-1-methylxanthine) at 2 days post-confluency.
The medium was changed to insulin medium (1 μg/ml) 2 days after induction. Two days later, the medium was replaced with 10% fetal bovine serum/DMEM and then changed every 2 days. Full differentiation was achieved by 8 days after induction.
Adipocytes were incubated in Krebs-Ringer bicarbonate buffer supplemented with 30 mM HEPES, pH 7.4, with 0.5% BSA (KRBH/BSA) and 2.5 mM glucose for 3 h. The cells were washed once with PBS and incubated in BSA/KRH (25 mM HEPES-NaOH, pH 7.4, with 120 mM NaCl, 5 mM KCl, 1.2 mM MgSO4, 1.3 mM CaCl2, and 1.3 mM KH2PO4) without glucose for 15 min. The cells were then incubated with 100 nM insulin for 15 min. The assay was initiated by the addition of ^[14C]2-deoxyglucose (0.4 μCi/sample) and 5 mM glucose and terminated after 15 min by washing the cells three times with ice-cold PBS. Cells were solubilized in 1% Triton-100, and cell-associated radioactivity was determined by scintillation counting.

[2] = tested on: PTEN; experiment: Sucrose density gradient fractionation of crude plasma membranes and anti-PTEN Western blot, 3T3-L1 adipocytes
Description: Cells were washed with ice-cold PBS and then lysed in RIPA lysis buffer containing protease inhibitor cocktail (Roche), 1 mM PMSF, 1 mM NaVO4, 1 mM NaF and 25 nM calyculin A. Total cell lysates were incubated on ice for 30 min, then centrifuged at 4° C. for 20 min. Total protein was separated with 7.5% SDS-PAGE and transferred to nitrocellulose membranes. The membranes were blocked with TBS containing 0.05% Tween-20 and 1% bovine serum albumin, then incubated with primary antibodies overnight at 4° C. After incubation with the appropriate horseradish peroxidase-conjugated secondary antibodies, the bands were visualized by enhanced chemiluminescence. The intensity of the bands was quantified with ImageJ software.
Cells were rinsed twice with ice-cold PBS and harvested into 10 mM Tris (pH 7.4) with 150 mM NaCl, 5 mM EDTA, 2 mM PMSF, 2 mM NaVO4, 2 mM NaF, and 50 nM calyculin A, with protease inhibitor cocktail. The cells then were subjected to mechanical disruption with 15 strokes of a homogenizer. Homogenates were centrifuged at 2,300×g for 5 min at 4° C., and the supernatant was centrifuged at 18,000×g for 50 min at 4° C. (32). The resulting membrane pellets were resuspended in 10 mM Tris (pH 7.4) with 150 mM NaCl, 5 mM EDTA, 2 mM PMSF, 2 mM NaVO4, 2 mM NaF and 50 nM calyculinA A, with protease inhibitor cocktail and 1% Triton X-100, for sucrose density gradient fractionation. […]

[3] = tested on: PDK1; experiment: FRET emission ratio imaging of Lyn-PARE in 3T3 L1 preadipocytes; settings: pre-incubation with 50 μM C2-ceramide
From the text: (§1) PARE was generated by sandwiching full-length PDK1 between a FRET pair, ECFP and Citrine. Lyn-PARE and PARE-Kras were generated by the addition of the N-terminal portion of the Lyn kinase gene (GCIKSKRKDKD; SEQ ID NO:6) at the 5′ end and a C(A)2X tag (C is cysteine, A is an aliphatic amino acid, and X is any amino acid) at the 3′ end (KKKKKSKTKCVIM; SEQ ID NO:7) of PARE, respectively. Lyn-PARE R472/474A was generated by site-directed mutagenesis. PTEN A4 (fused with a C-terminal fluorescent protein) was targeted to raft and non-raft regions of plasma membrane with the same set of targeting motifs. All of the constructs were generated in a modified version of the mammalian expression vector pcDNA 3.
Cells were plated on sterilized glass coverslips in 35 mm dishes and were grown to 40% confluency in medium at 37° C. with 5% CO2, then transfected with Lipofectamine 2000. In the case of NIH 3T3 and HeLa cells, the cells were serum-starved for 24 h. For imaging, cells were washed with Hanks' balanced salt solution (HBSS) and imaged in the dark at room temperature. […] Imaging data were analyzed with Metafluor 6.2 software (Universal Imaging, Downingtown, Pa.). Fluorescence images were background-corrected by deducting the background (regions with no cells) from the emission intensities of CFP or YFP. […]

[4] = tested on: Akt; experiment: Membrane translocation of Akt PH domain in 3T3 L1 preadipocytes; settings: pre-incubation with 50 μM C2-ceramide
Description: (§2) Cells were plated on sterilized glass coverslips in 35 mm dishes and were grown to 40% confluency in medium at 37° C. with 5% CO2, then transfected with Lipofectamine 2000. In the case of NIH 3T3 and HeLa cells, the cells were serum-starved for 24 h. For imaging, cells were washed with Hanks' balanced salt solution (HBSS) and imaged in the dark at room temperature. Images were acquired on a Zeiss Axiovert 200M microscope with a cooled charge-coupled device camera, as previously described (8). Dual-emission ratio imaging was performed with a 420DF20 excitation filter, a 450DRLP dichroic mirror, and two emission filters. For CFP and YFP, 475DF40 and 535DF25, respectively, were used. Exposure times were 50-500 ms. Images were taken every 30 s. Imaging data were analyzed with Metafluor 6.2 software (Universal Imaging, Downingtown, Pa.). Fluorescence images were background-corrected by deducting the background (regions with no cells) from the emission intensities of CFP or YFP. Traces were normalized by taking the emission ratio before addition of drugs as 1.

[5] = tested on: Akt; experiment: FRET-based Akt activity reporter (AktAR) imaging in NIH 3T3 cells; settings: pre-incubation with 50 μM C2-ceramide for 60 min
Description: as §2

[6] = tested on: Akt; experiment: FRET-based Akt activity reporter (AktAR) imaging in 3T3 L1 preadipocytes; settings: pre-incubation with 50 μM C2-ceramide
Description: as §2

[7] = tested on: Akt; experiment: Membrane translocation of YFP-tagged Akt PH domain in NIH 3T3 cells
Description: as §2

[8] = tested on: PDK1; experiment: FRET emission ratio imaging of PDK1 activation reporters (PARE, Lyn-PARE, PARE-Kras) in NIH 3T3 cells; settings: for emission ratio change of the non-raft-targeted reporter (PARE-Kras) / emission ratio change of the untargeted reporter (PARE) / response of the Lyn-PARE R472/474A mutant reporter / increase in the yellow-to-cyan emission ratio of the raft-targeted PDK1 activity reporter (Lyn-PARE): serum-starved NIH 3T3 cells
From the text: as §1, §2

[9] = tested on: PDK1; experiment: FRET emission ratio imaging of PDK1 activation reporters in HeLa cells; settings: serum-starved HeLa cells; 100 ng/ml EGF
From the text: as §1, §2

[10] = NIH 3T3 cells, pre-incubation with 50 μM C2-ceramide for 60 min

CCCCCCCCCCCCC/C=C/[C@@H](O)[C@H](CO)NC(C)=O [C2-ceramide]
effect on insulin-induced glucose uptake [1]: blocked insulin-induced glucose uptake; also recorded: inhibited insulin-induced glucose uptake | increase in the amount of PTEN found in raft fractions ([2]; pre-incubation with 50 μM C2-ceramide, n=3): 8.8±2.1 fold | level of PTEN in non-raft regions of adipocyte membranes ([2]; pre-incubation with C2-ceramide): without changing the level of PTEN | effect on response of Lyn-PARE [3]: abolished | effect on membrane translocation of Akt PH domain [4]: abolished | effect on response of AktAR [5]: abolished | effect on response of AktAR [6]: abolished | effect on membrane translocation of Akt PH domain [7, 10]: abolished | effect on response of Lyn-PARE [8, 10]: abolished

OO [H2O2]
effect on Akt PH membrane translocation suppressed by Lyn-PTEN A4 ([7]; 50 mM H2O2): restored the membrane translocation | effect on inhibition of Akt-PH translocation by non-raft-targeted PTEN A4 (PTEN A4-Kras) ([7]; H2O2 treatment): reversed | effect on Lyn-PARE response to PDGF suppressed by targeted PTEN A4 ([8]; NIH 3T3 cells, 50 mM H2O2): restored

EGF: epidermal growth factor, purchased from Sigma-Aldrich (NSDSECPLSHDGYCLHDGVCMYIEALDKYACNCVVGYIGERCQYRDLKWWELR; UniProt P01133 971-1023, looked up)
emission ratio change of the non-raft-targeted reporter (PARE-Kras) [9]: but not PARE (n=4) or PARE-Kras | emission ratio change of the raft-targeted reporter (Lyn-PARE) [9]: induced an emission ratio increase | emission ratio change of the untargeted reporter (PARE) [9]: but not PARE

PDGF
emission ratio change of the non-raft-targeted reporter (PARE-Kras) ([8]; 50 ng/ml PDGF): no emission ratio change | emission ratio change of the untargeted reporter (PARE) ([8]; 50 ng/ml PDGF): no emission ratio change | response of the Lyn-PARE R472/474A mutant reporter ([8]; 50 ng/ml PDGF): lack of response | increase in the yellow-to-cyan emission ratio of the raft-targeted PDK1 activity reporter (Lyn-PARE) ([8]; 50 ng/ml PDGF, n=7): 19±4%

pervanadate [PV]
emission ratio change of the non-raft-targeted reporter (PARE-Kras) ([8]; 100 μM PV): Only the raft-targeted PDK1 activity reporter showed an increase | emission ratio change of the untargeted reporter (PARE) ([8]; 100 μM PV): no emission ratio change | increase in the yellow-to-cyan emission ratio of the raft-targeted PDK1 activity reporter (Lyn-PARE) ([8]; 100 μM PV, n=5): 20.7±3.3% | response of the Lyn-PARE R472/474A mutant reporter ([8]; PV): lack of response
